Measured values reported in the supplement of paper PMC11451515.

Test system: NOMO1
Assay: cell viability relative to DMSO control; higher = less cytotoxic
Conditions: 48 h
Summary of the method: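 Viability is expressed as a percentage of DMSO wells within each plate, and cell-free wells serve as background. Seeding densities in the 1536-well plates (5 μl) were 500 cells/well for NOMO1 or SEM leukemia cells and 1000 cells/well for P12-Ichikawa. Each line was adapted for at least four passages in each medium. Library compounds in DMSO were pin-dosed at 47 μM to 0.79 nM (11 points, threefold), and CellTiter-Glo One luminescence was read after 48 h at 37°C.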

[1] = HPLM + 10% dialyzed FBS, 0.000781 µM
[2] = HPLM + 10% dialyzed FBS, 0.00234 µM
[3] = HPLM + 10% dialyzed FBS, 0.00702 µM
[4] = HPLM + 10% dialyzed FBS, 0.0211 µM
[5] = HPLM + 10% dialyzed FBS, 0.0632 µM
[6] = HPLM + 10% dialyzed FBS, 0.19 µM
[7] = HPLM + 10% dialyzed FBS, 0.569 µM
[8] = HPLM + 10% dialyzed FBS, 1.71 µM
[9] = HPLM + 10% dialyzed FBS, 5.12 µM
[10] = HPLM + 10% dialyzed FBS, 15.4 µM
[11] = HPLM + 10% dialyzed FBS, 46.1 µM
[12] = RPMI 5 mM glucose + 10% FBS, 0.000781 µM
[13] = RPMI 5 mM glucose + 10% FBS, 0.00234 µM
[14] = RPMI 5 mM glucose + 10% FBS, 0.00702 µM
[15] = RPMI 5 mM glucose + 10% FBS, 0.0211 µM
[16] = RPMI 5 mM glucose + 10% FBS, 0.0632 µM
[17] = RPMI 5 mM glucose + 10% FBS, 0.19 µM
[18] = RPMI 5 mM glucose + 10% FBS, 0.569 µM
[19] = RPMI 5 mM glucose + 10% FBS, 1.71 µM
[20] = RPMI 5 mM glucose + 10% FBS, 5.12 µM
[21] = RPMI 5 mM glucose + 10% FBS, 15.4 µM
[22] = RPMI 5 mM glucose + 10% FBS, 46.1 µM
[23] = RPMI 5 mM glucose + 10% dialyzed FBS, 0.000781 µM
[24] = RPMI 5 mM glucose + 10% dialyzed FBS, 0.00234 µM
[25] = RPMI 5 mM glucose + 10% dialyzed FBS, 0.00702 µM
[26] = RPMI 5 mM glucose + 10% dialyzed FBS, 0.0211 µM
[27] = RPMI 5 mM glucose + 10% dialyzed FBS, 0.0632 µM
[28] = RPMI 5 mM glucose + 10% dialyzed FBS, 0.19 µM
[29] = RPMI 5 mM glucose + 10% dialyzed FBS, 0.569 µM
[30] = RPMI 5 mM glucose + 10% dialyzed FBS, 1.71 µM
[31] = RPMI 5 mM glucose + 10% dialyzed FBS, 5.12 µM
[32] = RPMI 5 mM glucose + 10% dialyzed FBS, 15.4 µM
[33] = RPMI 5 mM glucose + 10% dialyzed FBS, 46.1 µM

Compound | cell viability [1] | cell viability [2] | cell viability [3] | cell viability [4] | cell viability [5] | cell viability [6] | cell viability [7] | cell viability [8] | cell viability [9] | cell viability [10] | cell viability [11] | cell viability [12] | cell viability [13] | cell viability [14] | cell viability [15] | cell viability [16] | cell viability [17] | cell viability [18] | cell viability [19] | cell viability [20] | cell viability [21] | cell viability [22] | cell viability [23] | cell viability [24] | cell viability [25] | cell viability [26] | cell viability [27] | cell viability [28] | cell viability [29] | cell viability [30] | cell viability [31] | cell viability [32] | cell viability [33]
CC(=O)O[C@H]1C(=O)[C@]2(C)[C@@H](O)C[C@H]3OC[C@@]3(OC(C)=O)C2[C@H](OC(=O)C4=CC=CC=C4)[C@]5(O)C[C@H](OC(=O)[C@H](O)[C@@H](NC(=O)C6=CC=CC=C6)C7=CC=CC=C7)\C(=C1/C5(C)C)C (some centres not stated) | 74.6% | 34.7% | 39.5% | 41.3% | 39.6% | 31.7% | 33.1% | 36.6% | 35.5% | 29.1% | 33.1% | 124% | 27.4% | 23% | 25.4% | 25.4% | 22.5% | 23.2% | 23.9% | 23.1% | 23.2% | 19.6% | 106% | 32.5% | 25.2% | 31.5% | 24.8% | 26% | 29.7% | 31.4% | 29% | 27.1% | 20.3%
C[C@H]1[C@H](NC(=O)/C(=N/OC(C)(C)C(=O)O)c2csc(N)n2)C(=O)N1[S+](=O)([O-])O | 98.5% | 98% | 98.9% | 111% | 108% | 110% | 113% | 88.2% | 102% | 85.3% | 90.4% | 105% | 98.3% | 101% | 108% | 107% | 105% | 107% | 104% | 92.3% | 108% | 103% | 94.2% | 101% | 94.1% | 92.3% | 97.3% | 94.7% | 91.7% | 99.2% | 85.2% | 91.1% | 83.3%
COC1CCC(CC1)N(C(=O)C2CCC(C)CC2)C3=C(SC(=C3)\C4=C\CCCC4)C(O)=O (configuration not stated) | 120% | 120% | 109% | 127% | 128% | 130% | 107% | 112% | 106% | 90.9% | 52.6% | 103% | 115% | 104% | 119% | 102% | 104% | 91.5% | 105% | 103% | 90.7% | 96% | 102% | 102% | 120% | 102% | 110% | 99.4% | 97% | 109% | 104% | 93.4% | 84.5%
CC1(C)O[C@@H]2C[C@H]3[C@@H]4CCC5=CC(=O)C=C[C@]5(C)[C@@]4(F)[C@@H](O)C[C@]3(C)[C@]2(C(=O)CO)O1 | 110% | 119% | 112% | 111% | 117% | 108% | 90.6% | 105% | 86.3% | 48.4% | 25.8% | 98.3% | 112% | 96.1% | 111% | 115% | 121% | 117% | 109% | 97.7% | 33.2% | 18.1% | 106% | 112% | 111% | 127% | 122% | 117% | 113% | 110% | 99.8% | 105% | 32.2%
